From PubChem BioAssay AID248 (DTP/NCI, 2004)
Inconclusive results and toxic doses are left out.

Test system: L1210 leukemia ip in BDF1 mice, survival T/C
Test: NCI In Vivo Anticancer Drug Screen. Data for tumor model L1210 Leukemia (intraperitoneal) in B6D2F1 (BDF1) mice
Conditions: higher = longer survival
Method in brief: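 Ratio derived from survival: compound-dosed mice over vehicle-dosed mice, all bearing a transplantable tumor.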

[1] = endpoint: mean survival time, dose: 100.0 mg/kg/injection, schedule: Q04DX003 (ip), vehicle: other
[2] = endpoint: mean survival time, dose: 200.0 mg/kg/injection, schedule: Q04DX003 (ip), vehicle: other
[3] = endpoint: mean survival time, dose: 400.0 mg/kg/injection, schedule: Q04DX003 (ip), vehicle: other
[4] = endpoint: mean survival time, dose: 100.0 mg/kg/injection, schedule: Q01DX009 (ip), vehicle: Klucel (hydroxypropylcellulose) (HPC)
[5] = endpoint: mean survival time, dose: 200.0 mg/kg/injection, schedule: Q01DX009 (ip), vehicle: Klucel (hydroxypropylcellulose) (HPC)
[6] = endpoint: mean survival time, dose: 400.0 mg/kg/injection, schedule: Q01DX009 (ip), vehicle: Klucel (hydroxypropylcellulose) (HPC)

`O=C1CCCCC1c1ccccc1` (stereo not given) was tested, and the T/C (endpoint: mean survival time, dose: 50.0 mg/kg/injection, schedule: Q04DX002 (ip), vehicle: other) was 99 % of control, the T/C (endpoint: mean survival time, dose: 100.0 mg/kg/injection, schedule: Q04DX002 (ip), vehicle: other) was 92 % of control and the T/C [1] was 96 % of control. For the same molecule, the T/C (endpoint: mean survival time, dose: 200.0 mg/kg/injection, schedule: Q04DX002 (ip), vehicle: other) was 108 % of control, the T/C [2] was 95 % of control and the T/C (endpoint: mean survival time, dose: 400.0 mg/kg/injection, schedule: Q04DX002 (ip), vehicle: other) was 99 % of control. The T/C [3] was 98 % of control.
`CC1Oc2ccccc2OC1CN1CCC2(CC1)C(=O)N(C)CN2c1ccccc1` (stereo not given) was tested, and the T/C (endpoint: mean survival time, dose: 100.0 mg/kg/injection, schedule: Q01DX001 (ip), vehicle: Klucel (hydroxypropylcellulose) (HPC)) was 88 % of control, the T/C (endpoint: mean survival time, dose: 200.0 mg/kg/injection, schedule: Q01DX001 (ip), vehicle: Klucel (hydroxypropylcellulose) (HPC)) was 99 % of control and the T/C (endpoint: mean survival time, dose: 400.0 mg/kg/injection, schedule: Q01DX001 (ip), vehicle: Klucel (hydroxypropylcellulose) (HPC)) was 86 % of control.
For `CC(=O)C1=C(O)c2ccccc2C(=O)C1=O`, the T/C (endpoint: mean survival time, dose: 100.0 mg/kg/injection, schedule: Q01DX001 (ip), vehicle: water) was 96 % of control.
In the case of `O=C1c2ccccc2C(=O)c2c(NCCNCCO)ccc(NCCNCCO)c21`, the T/C (endpoint: mean survival time, dose: 2.0 mg/kg/injection, schedule: Q01DX009 (ip), vehicle: Klucel (hydroxypropylcellulose) (HPC)) is reported as 204 % of control, the T/C (endpoint: mean survival time, dose: 2.0 mg/kg/injection, schedule: Q01DX009 (ip), vehicle: saline with Tween-80) is reported as 162 % of control and the T/C (endpoint: mean survival time, dose: 2.0 mg/kg/injection, schedule: Q01DX009 (ip), vehicle: water) is reported as 196 % of control. For the same molecule, the T/C (endpoint: mean survival time, dose: 4.0 mg/kg/injection, schedule: Q01DX009 (ip), vehicle: Klucel (hydroxypropylcellulose) (HPC)) was 306 % of control, the T/C (endpoint: mean survival time, dose: 4.0 mg/kg/injection, schedule: Q01DX009 (ip), vehicle: saline with Tween-80) was 153 % of control and the T/C (endpoint: mean survival time, dose: 4.0 mg/kg/injection, schedule: Q01DX009 (ip), vehicle: water) was 159 % of control. For the same molecule, the T/C (endpoint: mean survival time, dose: 8.0 mg/kg/injection, schedule: Q01DX009 (ip), vehicle: Klucel (hydroxypropylcellulose) (HPC)) was 491 % of control, the T/C (endpoint: mean survival time, dose: 8.0 mg/kg/injection, schedule: Q01DX009 (ip), vehicle: saline with Tween-80) was 220 % of control and the T/C (endpoint: mean survival time, dose: 8.0 mg/kg/injection, schedule: Q01DX009 (ip), vehicle: water) was 498 % of control. The T/C (endpoint: mean survival time, dose: 16.0 mg/kg/injection, schedule: Q01DX009 (ip), vehicle: Klucel (hydroxypropylcellulose) (HPC)) was 347 % of control, the T/C (endpoint: mean survival time, dose: 16.0 mg/kg/injection, schedule: Q01DX009 (ip), vehicle: saline with Tween-80) was 253 % of control and the T/C (endpoint: mean survival time, dose: 16.0 mg/kg/injection, schedule: Q01DX009 (ip), vehicle: water) was 396 % of control. For the same molecule, the T/C (endpoint: mean survival time, dose: 32.0 mg/kg/injection, schedule: Q01DX009 (ip), vehicle: Klucel (hydroxypropylcellulose) (HPC)) was 118 % of control, the T/C (endpoint: mean survival time, dose: 32.0 mg/kg/injection, schedule: Q01DX009 (ip), vehicle: saline with Tween-80) was 89 % of control and the T/C (endpoint: mean survival time, dose: 32.0 mg/kg/injection, schedule: Q01DX009 (ip), vehicle: water) was 93 % of control. The T/C (endpoint: median survival time, dose: 8.0 mg/kg/injection, schedule: Q01DX005 (oral), vehicle: Klucel (hydroxypropylcellulose) (HPC)) was 90 % of control, the T/C (endpoint: median survival time, dose: 8.0 mg/kg/injection, schedule: Q01DX005 (oral), vehicle: water) was 101 % of control and the T/C (endpoint: median survival time, dose: 16.0 mg/kg/injection, schedule: Q01DX005 (oral), vehicle: Klucel (hydroxypropylcellulose) (HPC)) was 98 % of control. The T/C (endpoint: median survival time, dose: 16.0 mg/kg/injection, schedule: Q01DX005 (oral), vehicle: water) was 101 % of control, the T/C (endpoint: median survival time, dose: 32.0 mg/kg/injection, schedule: Q01DX005 (oral), vehicle: Klucel (hydroxypropylcellulose) (HPC)) was 94 % of control and the T/C (endpoint: median survival time, dose: 32.0 mg/kg/injection, schedule: Q01DX005 (oral), vehicle: water) was 101 % of control. For the same molecule, the T/C (endpoint: median survival time, dose: 64.0 mg/kg/injection, schedule: Q01DX005 (oral), vehicle: Klucel (hydroxypropylcellulose) (HPC)) was 100 % of control, the T/C (endpoint: median survival time, dose: 64.0 mg/kg/injection, schedule: Q01DX005 (oral), vehicle: water) was 97 % of control and the T/C (endpoint: median survival time, dose: 128.0 mg/kg/injection, schedule: Q01DX005 (oral), vehicle: Klucel (hydroxypropylcellulose) (HPC)) was 94 % of control. For the same molecule, the T/C (endpoint: median survival time, dose: 128.0 mg/kg/injection, schedule: Q01DX005 (oral), vehicle: water) was 100 % of control, the T/C (endpoint: median survival time, dose: 256.0 mg/kg/injection, schedule: Q01DX005 (oral), vehicle: Klucel (hydroxypropylcellulose) (HPC)) was 98 % of control and the T/C (endpoint: median survival time, dose: 256.0 mg/kg/injection, schedule: Q01DX005 (oral), vehicle: water) was 102 % of control. For the same molecule, the T/C (endpoint: median survival time, dose: 512.0 mg/kg/injection, schedule: Q01DX005 (oral), vehicle: Klucel (hydroxypropylcellulose) (HPC)) was 103 % of control and the T/C (endpoint: median survival time, dose: 512.0 mg/kg/injection, schedule: Q01DX005 (oral), vehicle: water) was 106 % of control.
For `COc1ccc(NC(=O)c2cccc([N+](=O)[O-])c2)cc1`, the T/C [4] was 96 % of control, the T/C [5] was 93 % of control and the T/C [6] was 96 % of control.
For `Cc1ccc(C(=O)C(=O)c2ccccc2)c(C)c1`, the T/C (endpoint: mean survival time, dose: 100.0 mg/kg/injection, schedule: Q01DX001 (ip), vehicle: saline) was 107 % of control, the T/C (endpoint: mean survival time, dose: 200.0 mg/kg/injection, schedule: Q01DX001 (ip), vehicle: saline) was 102 % of control and the T/C (endpoint: mean survival time, dose: 400.0 mg/kg/injection, schedule: Q01DX001 (ip), vehicle: saline) was 96 % of control.
With `Nc1ccc(C(=O)NCC(=O)O)cc1` the T/C (endpoint: mean survival time, dose: 100.0 mg/kg/injection, schedule: Q04DX002 (ip), vehicle: Klucel (hydroxypropylcellulose) (HPC)) was 93 % of control, the T/C (endpoint: mean survival time, dose: 200.0 mg/kg/injection, schedule: Q04DX002 (ip), vehicle: Klucel (hydroxypropylcellulose) (HPC)) was 104 % of control and the T/C (endpoint: mean survival time, dose: 400.0 mg/kg/injection, schedule: Q04DX002 (ip), vehicle: Klucel (hydroxypropylcellulose) (HPC)) was 100 % of control.
In the case of `CCOC(=O)C1(C(=O)OCC)C(C)CC(OCC)N1C(=O)c1cc2c(cc1[N+](=O)[O-])OCO2` (stereo not given), the T/C (endpoint: mean survival time, dose: 25.0 mg/kg/injection, schedule: Q04DX003 (ip), vehicle: Klucel (hydroxypropylcellulose) (HPC)) is reported as 92 % of control, the T/C (endpoint: mean survival time, dose: 50.0 mg/kg/injection, schedule: Q04DX003 (ip), vehicle: Klucel (hydroxypropylcellulose) (HPC)) is reported as 89 % of control and the T/C (endpoint: mean survival time, dose: 100.0 mg/kg/injection, schedule: Q04DX003 (ip), vehicle: Klucel (hydroxypropylcellulose) (HPC)) is reported as 94 % of control.
In the case of `O=c1[nH]c2ccncc2c(=O)n1OS(=O)(=O)c1ccccc1`, the T/C (endpoint: mean survival time, dose: 75.0 mg/kg/injection, schedule: Q01DX009 (ip), vehicle: Klucel (hydroxypropylcellulose) (HPC)) is reported as 92 % of control, the T/C (endpoint: mean survival time, dose: 150.0 mg/kg/injection, schedule: Q01DX009 (ip), vehicle: Klucel (hydroxypropylcellulose) (HPC)) is reported as 95 % of control and the T/C (endpoint: mean survival time, dose: 300.0 mg/kg/injection, schedule: Q01DX009 (ip), vehicle: Klucel (hydroxypropylcellulose) (HPC)) is reported as 94 % of control.
`COc1ccc2c(c1)C(Br)N(S(=O)(=O)c1ccc(C)cc1)CCC2=O` (stereo not given) was tested, and the T/C (endpoint: mean survival time, dose: 25.0 mg/kg/injection, schedule: Q01DX009 (ip), vehicle: other) was 97 % of control, the T/C (endpoint: mean survival time, dose: 50.0 mg/kg/injection, schedule: Q01DX009 (ip), vehicle: other) was 95 % of control and the T/C (endpoint: mean survival time, dose: 100.0 mg/kg/injection, schedule: Q01DX009 (ip), vehicle: other) was 92 % of control. For the same molecule, the T/C [1] was 92 % of control, the T/C (endpoint: mean survival time, dose: 200.0 mg/kg/injection, schedule: Q01DX009 (ip), vehicle: other) was 104 % of control and the T/C [2] was 97 % of control. The T/C [3] was 89 % of control.
`Cc1ccc(C(C)C)c(OCCNC2=NCCN2)c1` was tested, and the T/C (endpoint: mean survival time, dose: 6.25 mg/kg/injection, schedule: Q01DX009 (ip), vehicle: saline) was 97 % of control, the T/C (endpoint: mean survival time, dose: 6.25 mg/kg/injection, schedule: Q04DX003 (ip), vehicle: saline) was 97 % of control and the T/C (endpoint: mean survival time, dose: 12.5 mg/kg/injection, schedule: Q01DX009 (ip), vehicle: saline) was 104 % of control. The T/C (endpoint: mean survival time, dose: 12.5 mg/kg/injection, schedule: Q04DX003 (ip), vehicle: saline) was 92 % of control, the T/C (endpoint: mean survival time, dose: 25.0 mg/kg/injection, schedule: Q01DX009 (ip), vehicle: saline) was 97 % of control and the T/C (endpoint: mean survival time, dose: 25.0 mg/kg/injection, schedule: Q04DX003 (ip), vehicle: saline) was 97 % of control.
For `CC(C)CN(C)N=Nc1ccccc1C(=O)NN`, the T/C (endpoint: mean survival time, dose: 50.0 mg/kg/injection, schedule: Q01DX009 (ip), vehicle: saline with Tween-80) was 100 % of control, the T/C (endpoint: mean survival time, dose: 50.0 mg/kg/injection, schedule: Q04DX003 (ip), vehicle: saline with Tween-80) was 98 % of control and the T/C (endpoint: mean survival time, dose: 100.0 mg/kg/injection, schedule: Q01DX009 (ip), vehicle: saline with Tween-80) was 98 % of control. For the same molecule, the T/C (endpoint: mean survival time, dose: 100.0 mg/kg/injection, schedule: Q04DX003 (ip), vehicle: saline with Tween-80) was 98 % of control, the T/C (endpoint: mean survival time, dose: 200.0 mg/kg/injection, schedule: Q01DX009 (ip), vehicle: saline with Tween-80) was 121 % of control and the T/C (endpoint: mean survival time, dose: 200.0 mg/kg/injection, schedule: Q04DX003 (ip), vehicle: saline with Tween-80) was 103 % of control.
For `CCCCCCCCCCCCCCCCCCNC(=O)Oc1ccc(Cl)c(C)c1`, the T/C [4] was 88 % of control, the T/C (endpoint: mean survival time, dose: 100.0 mg/kg/injection, schedule: Q04DX003 (ip), vehicle: gum acacia) was 88 % of control and the T/C [5] was 92 % of control. The T/C (endpoint: mean survival time, dose: 200.0 mg/kg/injection, schedule: Q04DX003 (ip), vehicle: gum acacia) was 86 % of control, the T/C [6] was 92 % of control and the T/C (endpoint: mean survival time, dose: 400.0 mg/kg/injection, schedule: Q04DX003 (ip), vehicle: gum acacia) was 89 % of control.
